Assays:
SB47 CTL clone = experiment: Intracellular IFN-γ staining, SB47 CTL clone with LPEP-pulsed T2 cells; format: cell-based, human; details: IFNγ intracellular staining, peptide-pulsed T2 cells, 4 h; performed twice
Procedure: Data were analyzed with FlowJo software (Tree Star).

CA5 CTL clone = details: IFNγ intracellular staining, peptide-pulsed T2 cells, 4 h; performed twice
Procedure: CTL clones were tested against a range of antigen-presenting cells and assayed for intracellular expression of IFN-γ by flow cytometry using the BD Cytofix/Cytoperm kit (BD Biosciences) according to standard protocols. Briefly, clones were incubated with antigen-presenting cells at a stimulator to responder ratio of 1:2 for 4 h in the presence of brefeldin A (BioLegend). For peptide titration experiments, T2 cells were incubated with various concentrations of LPEP peptide for 1 h and then washed thoroughly prior to incubation with CTL clones. After stimulation, cells were stained with Live/Dead Fixable Aqua Dead Cell Stain (Invitrogen) and anti-CD8-Cy5.5-PerCP mAb (BioLegend) for 30 min at 4 °C. Cells were then washed, fixed, permeabilized, and labeled with anti-IFN-γ-antigen-presenting cell mAb (BioLegend) for 30 min at 4 °C. After a further wash, samples were collected using a FACSCanto II flow cytometer (BD Biosciences). Data were analyzed with FlowJo software (Tree Star). Lymphocytes were identified based on light scatter, then live CD8^+ T-cells were selected and IFN-γ^+ gates were drawn based on unstimulated controls.

LPEPLPQGQLTAY [LPEP peptide]
recognition of LPEP presented by HLA-B*35:08 versus HLA-B*35:01 by SB47 CTL clone (SB47 CTL clone): equally well | recognition of LPEP presented by HLA-B*35:08 versus HLA-B*35:01 by CA5 CTL clone (CA5 CTL clone): preferentially recognized HLA-B*35:08^LPEP when the peptide was limited
